Data set [1] concerns myo-inositol dehydrogenase. Kind of data set: Study on buffers in reagents for myo-inositol quantitative determination (acceleration stability test of R-2 reagent). Conditions: 100 mM buffer pH 8.8; R-2 stored at 30° C. for 20 days, tested on 7th, 12th, 20th days.
In data set [2] the test system is myo-inositol dehydrogenase derived from the strain F.sp.671. Kind of data set: Relative activity assay (initial velocity with each coenzyme or substrate). Conditions: for Substrate specificity (enzyme activity for each substrate): coenzyme NAD, substrate 20 mM, pH 10.0, 37° C., initial velocity to myo-inositol as 100%; for Relative activity ratio for each coenzyme used: substrate 20 mM myo-inositol, coenzyme 2 mM, 100 mM glycine buffer pH 10.0, 37° C., NAD as 100%. The data set is classed as biochemical, Flavobaterium sp. 671. As for the experimental part:
The relative activities were determined with the coenzyme changed according to the following method. Relative Activity Assay <Composition of Reaction Solution> • Buffer: 100 mM glycine buffer (pH 10.0) • Substrate: 20 mM myo-inositol (Sigma, Co., Ltd.) • Coenzyme: 2 mM (NAD, thio-NAD, NADP, thio NADP; Oriental Yeast Co., Ltd.) One ml of the above reaction solution is added to a quartz cell. Then, the quartz cell is placed in a spectrophotometer adjusted at a temperature of 37° C. The cell is incubated for 5 minutes or more and then 20 μl of an enzyme solution of about 1.0 U/ml is added thereto and mixed. The initial velocity is obtained from an absorbance change per minute at a wavelength peculiar to each reduced coenzyme. The initial velocity obtained with each coenzyme is compared with the initial velocity (100%) obtained using NAD as a coenzyme to provide the relative activity. According to the relative activity assay described above, the measurement was performed using the same concentration of D-chiro-inositol, D-mannose, D-fructose, D-galactose, mannitol, epi-inositol, or scyllo-inositol in place of the substrate in the reaction solution. […] The substrates used include D-mannose, D-fructose, D-galactose, mannitol, D-chiro-inositol (as above: Wako Pure Chemical Industries, Ltd.), myo-inositol, epi-inositol, and scyllo-inositol (as above: Sigma, Co., Ltd.). Following the relative activity assay described above, the measurement was performed using each of 100 mM tris buffer (pH 7.0-9.0) and 100 mM glycine buffer (pH 9.0-11.0) in place of 100 mM of pH 10.0 glycine buffer in the reaction solution. […] Using the relative activity assay described above, the concentration of myo-inositol and the concentrations of NAD and thio-NAD were changed to determine Km values respectively. Using the activity assay described above, the substrate concentration was changed to calculate the Km value.

Data set [3] concerns myo-inositol dehydrogenase. Conditions: pH 8.8.

Entries after “also recorded” stand apart in the source; their conditions may differ. Where two headings read alike, the source gives them in different places.

As for `O=C(O)CN(CCO)CCO` [Bicine, N,N-Bis(hydroxyethyl)glycine], the “Stability of sensitivity of R-2 reagent by buffer, in comparison to the standard solution” value (“Stability of sensitivity of R-2 reagent” below) in data set [1] is “stable sensitivity; also recorded: most stable sensitivity”.

Take `O=C(CO)[C@@H](O)[C@H](O)[C@H](O)CO` [Fructose, D-fructose]: the “Substrate specificity (enzyme activity for each substrate)” value (shortened to “Substrate specificity”) in data set [2] was “less than 1%”.

Turning to `O=C[C@H](O)[C@@H](O)[C@@H](O)[C@H](O)CO` [Galactose, D-galactose], the “Substrate specificity” value in data set [2] is listed as “less than 1%”.

With `OC[C@@H](O)[C@@H](O)[C@H](O)[C@H](O)CO` [Mannitol, mannitol], in data set [2], the “Substrate specificity” value was 0%.

For `NC(=S)c1ccc[n+]([C@@H]2O[C@H](COP(=O)([O-])OP(=O)(O)OC[C@H]3O[C@@H](n4cnc5c(N)ncnc54)[C@H](O)[C@@H]3O)[C@@H](O)[C@H]2O)c1` [Thio-NAD, thio-nicotinamide adenine dinucleotide], the Michaelis constant (Km) in data set [2] (coenzyme concentration changed, read-out: Km value for coenzyme) was 4.5 ± 1 mM. For the same molecule, the “Relative activity ratio for each coenzyme used” value (“Relative activity ratio” for short) in data set [2] is given as 29%.

`NC(=S)c1ccc[n+]([C@@H]2O[C@H](COP(=O)([O-])OP(=O)(O)OC[C@H]3O[C@@H](n4cnc5c(N)ncnc54)[C@H](OP(=O)(O)O)[C@@H]3O)[C@@H](O)[C@H]2O)c1` [Thio-NADP, thio-nicotinamide adenine dinucleotide phosphate]: the “Relative activity ratio” value in data set [2] was found to be 0%.

As to `O=C(O)CNC(CO)(CO)CO` [Tricine, N-Tris(hydroxymethyl)methylglycine], the “Stability of sensitivity of R-2 reagent” value in data set [1] is recorded as “stable sensitivity”.

In the case of `OC1C(O)C(O)C(O)C(O)C1O` [chiro-Inositol, D-chiro-inositol], in data set [2], the “Substrate specificity” value was 18%.

On to `OC1C(O)C(O)C(O)C(O)C1O` (stereo not drawn) [epi-Inositol, epi-inositol], for which, in data set [2], the “Substrate specificity” value was found to be 2%.

On to `O[C@H]1[C@H](O)[C@@H](O)[C@H](O)[C@@H](O)[C@H]1O` [myo-Inositol, myo-inositol], for which the “Substrate specificity” value in data set [2] is 100%. In addition, in data set [2] (substrate concentration changed, read-out: Km value for substrate), the Michaelis-Menten constant (Km) turned out to be 1.7 ± 0.2 mM.

As for `O[C@H]1[C@H](O)[C@@H](O)[C@H](O)[C@@H](O)[C@@H]1O` [scyllo-Inositol, scyllo-inositol], the “Substrate specificity” value in data set [2] is recorded as “less than 1%”.

Consider Tris(hydroxymethyl)aminomethane, for which, in data set [3], the “Stability of sensitivity of R-2 reagent” value is reported as “stable sensitivity”.

Regarding “nicotinamide adenine dinucleotide phosphate [NADP]”, in data set [2], the “Relative activity ratio” value worked out at 8%.

Usually Km stands for the concentration of substrate that gives half-maximal velocity.

(Values after patent publication US7452687B2 (Asahi Kasei Pharma Corporation, priority 2002, dated 2008).)
